According to article PMC11758220, “Identification of a Privileged Scaffold for Inhibition of Sterol Transport Proteins through the Synthesis and Ring Distortion of Diverse, Pseudo-Natural Products” (ACS Central Science, 2025):

What was measured:
Format in all cases: binding
Aster-A = biological target: T1, Aster-A (Homo sapiens, UniProt Q96CP6); assay: Fluorescence polarisation (FP) competition with NBD-cholesterol, Aster-A; settings: for IC50: mean of three experiments run in technical duplicates; for inhibition at 10 µM / Aster-A (FP) inhibition: single dose, Dose = 10 µM
T1 construct: Aster-A(359-547); GST (PreScission-cleavable) (N, cleaved yes); made in house; host or cells: E. coli OverExpress C41
T1 sequence (Q96CP6 359-547): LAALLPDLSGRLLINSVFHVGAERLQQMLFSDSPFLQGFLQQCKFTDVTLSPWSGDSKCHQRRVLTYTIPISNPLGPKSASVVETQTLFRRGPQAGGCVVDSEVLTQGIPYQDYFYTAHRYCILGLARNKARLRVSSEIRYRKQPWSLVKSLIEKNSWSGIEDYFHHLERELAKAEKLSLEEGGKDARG
Excerpt: (§1) Protein expression constructs
(§2) Human ASTER domains of Aster-A(359-547), -B(364-552) and -C(318-504) were subcloned into a pGEX-6p-2rbs vector, thus introducing the cloning artifact ‘GPLGS’.3 The pGEX-6P-1-GST-OSBP(377- […]
(§3) a gift from James H. Hurley (University of California).4 The pHIS_2His6_Thrombin_STARD4(2-205;C75S) plasmid was a gift from Young Jun Im (Chonnam National University).5 STARD5A was a gift from Nicola Burgess-Brown (Addgene plasmid #42392; http://n2t.net/addgene:42392; […]
(§4) Protein expression and purification […]
(§5) vectors including an N-terminal PreScission-cleavable glutathione S-transferase (GST)-tag were expressed in Escherichia coli (E. coli) OverExpress C41 in Terrific Broth (TB) medium for 16 h at 18 °C after the induction with 0.1 mM isopropyl β-D-1-thiogalactopyranoside (IPTG). Cells were harvested at 3500 × g for 15 minutes and lysed by sonication in buffer containing 50 mM HEPES pH 7.5, 300 mM NaCl, 10 %v/v glycerol, 5 mM dithiothreitol (DTT), 0.1 %v/v Triton X-100 and protease inhibitor mix HP plus (Serva). The lysate was purified by affinity chromatography on a GSTrap FF column (Cytiva) using an ÄKTA Start (Cytiva) in buffer containing 50 mM HEPES pH 7.5, 300 mM NaCl, 10 %v/v glycerol, 5 mM DTT and 0.01 %v/v Triton X-100. The GST-tag was cleaved overnight on the column at 4 °C. The Aster sterol binding domains were further purified by size-exclusion chromatography (SEC) on a HiLoad 16/600 Superdex 75 pg (Cytiva) in buffer containing 20 mM HEPES pH 7.5, 300 mM NaCl, 10 %v/v […]
(§6) STARD5(6-213) harboring an N-terminal His6-Tag were expressed in E. coli BL21(DE3) in Luria-Bertani Broth (LB) medium for approximately 16 h at 18 °C after induction with 0.15 mM IPTG. Cells were harvested at 3500 × g for 15 minutes and lysed by sonication in buffer containing 50 mM HEPES pH 7.5, 150 mM NaCl, 5 %v/v glycerol, 5 mM DTT, 0.1 %v/v Triton X -100 and ethylenediaminetetraacetic acid (EDTA)-free protease inhibitor cocktail (Sigma-Aldrich). The cleared lysate was purified by affinity chromatography on a Ni-NTA Superflow Cartridge (Qiagen) using an ÄKTA Start (Cytiva) in buffer containing 50 mM HEPES pH 7.5, 150 mM NaCl, 5 %v/v glycerol, 5 mM DTT. START domains were eluted by using elution buffer containing 50 mM HEPES pH 7.5, 150 mM NaCl, 5 %v/v glycerol, 5 mM DTT and 500 mM imidazole. Proteins were further purified by SEC on a HiLoad 16/600 Superdex 75 pg (Cytiva) in buffer containing 20 mM HEPES pH 7.5, 150 mM NaCl, 5 %v/v glycerol and 2 mM DTT.
(§7) The ORP domain of human OSBP(377-807) in the pGEX-6p-1 vector with an N-terminal PreScission-cleavable GST-tag was expressed in E. coli OverExpress C41 in LB medium for 16 h at 18 °C after induction with 0.1 mM IPTG. Cells were harvested at 3500 × g for 15 minutes and lysed by sonication in buffer containing 20 mM HEPES pH 7.5, 300 mM NaCl, 10 %v/v glycerol, 5 mM DTT, 0.1 %v/v Triton X-100 and EDTA-free protease inhibitor cocktail (Sigma-Aldrich). The cleared lysate was purified by affinity chromatography on a GSTrap HF column (Cytiva) using an ÄKTA Start (Cytiva) in buffer containing 20 mM HEPES pH 7.5, 300 mM NaCl, 10 %v/v glycerol, 5 mM DTT. OSBP(377 -807) was eluted by using elution buffer containing 20 mM HEPES pH 7.5, 300 mM NaCl, 10 %v/v glycerol, 5 mM DTT and 10 mM reduced glutathione. Proteins were further purified by SEC on a HiLoad 16/600 Superdex 75 pg (Cytiva) using an ÄKTA Explorer (Cytiva) in buffer containing 20 mM HEPES pH 7.5, 150 mM NaCl, 10 %v/v glycerol and 2 mM DTT.
(§8) The ORP domains of human ORP1(534-950) in pET24b(+) and ORP2(49-480) in the pET24b(+) vector including an N-terminal His6-Tag were expressed in E. coli BL21(DE3) in TB medium for approximately 16 h at 18 °C after induction with 0.1 mM IPTG. Cells were collected at 3500 × g for 15 minutes and lysed by sonification in buffer containing 10 mM Tris-HCl pH 8, 300 mM NaCl, 5 % glycerol, 2 mM DTT, 0.1 % Triton X-100 and EDTA-free protease inhibitor cocktail (Sigma-Aldrich). The cleared […]

Aster-B = biological target: T2, Aster-B (Homo sapiens, UniProt Q3KR37); assay: Fluorescence polarisation (FP) competition with NBD-cholesterol, Aster-B; settings: for IC50: mean of three experiments run in technical duplicates; for inhibition at 10 µM / Aster-B (FP) inhibition: single dose, Dose = 10 µM
T2 construct: -B(364-552); GST (PreScission-cleavable) (N, cleaved yes); made in house; host or cells: E. coli OverExpress C41
T2 sequence (Q3KR37 364-552): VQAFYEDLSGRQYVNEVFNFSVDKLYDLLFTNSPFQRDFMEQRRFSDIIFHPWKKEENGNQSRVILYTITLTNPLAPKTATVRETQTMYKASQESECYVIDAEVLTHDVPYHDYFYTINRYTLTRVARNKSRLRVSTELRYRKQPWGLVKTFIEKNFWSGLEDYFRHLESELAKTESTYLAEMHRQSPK
Excerpt: as §1, §2, §3, §4, §5, §6, §7, §8

STARD3 = biological target: T3, STARD3 (Homo sapiens, UniProt Q14849); assay: Differential scanning fluorimetry (DSF), STARD3; settings: for ΔTm at 10 µM / STARD3 (DSF) ΔTm: single dose, Dose = 10 µM; for Kd: apparent Kd, mean of three experiments run in technical duplicates, read-out: STARD3 Kd,app (DSF); for STARD3 (DSF) ΔTmmax: maximal thermal shift
T3 construct: STARD3(216-444); made in house; host or cells: E. coli BL21(DE3)
T3 sequence (Q14849 216-444): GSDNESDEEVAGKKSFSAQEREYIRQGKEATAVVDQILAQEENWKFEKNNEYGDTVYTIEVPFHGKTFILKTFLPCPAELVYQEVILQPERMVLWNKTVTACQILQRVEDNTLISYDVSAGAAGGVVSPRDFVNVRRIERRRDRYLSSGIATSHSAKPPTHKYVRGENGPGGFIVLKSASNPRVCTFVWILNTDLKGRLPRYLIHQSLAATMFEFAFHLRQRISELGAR
Excerpt: as §1, §2, §3, §4, §5, §6, §7, §8

Structure (SMILES)	IC50 (Aster-A) [µM]	inhibition at 10 µM (Aster-A) [%]	IC50 (Aster-B) [µM]	inhibition at 10 µM (Aster-B) [%]	ΔTm at 10 µM (STARD3) [°C]	Kd (STARD3) [µM]	STARD3 (DSF) ΔTmmax (STARD3) [°C]	Aster-A (FP) inhibition (Aster-A) [%]	Aster-B (FP) inhibition (Aster-B) [%]	STARD3 (DSF) ΔTm (STARD3) [°C]
C[C@]12CC[C@@H]3C[C@H]1CC[C@@]21C(=Nc2ccc(Br)cc21)O3 (racemic) [Compound 15b]	4.3	67	> 80	19	0.3					
CC12CCC3CC1CCC21C(=Nc2ccc(N4CCOCC4)cc21)O3 (racemic) [Compound 19a]	0.77	60	> 80	14	1.2					
CC12CCC3CC1CCC21C(=Nc2ccc(Br)cc21)O3 (single isomer, unassigned; (+)) [(+)-15b]	35	2	> 80	3.33	0.244	> 100	0.44			
CC12CCC3CC1CCC21C(=Nc2ccc(N4CCOCC4)cc21)O3 (single isomer, unassigned; (+)) [(+)-19a]	15.4		> 80	7.5	1.5	> 100	3.6	12		
CC12CCC3CC1CCC21C(=Nc2ccc(N4CCOCC4)cc21)O3 (single isomer, unassigned; (-)) [(−)-19a]	0.46		> 80			> 100	0.9	79	7	1.0
C[C@@]12CC[C@H]3C[C@@H]1CC[C@]21C(=Nc2ccc(Br)cc21)O3 [(−)-15b]	4.14	80	> 80	14	0.5	> 100	0.7			
CC(C)Oc1ccc(C(=O)Nc2nc3c(s2)CN(C(=O)OC(C)(C)C)CC3)cc1 [Autogramin-2, reference compound]	1.09		> 80			> 30		70	5	0.027
Cc1c2c(nc3ccccc13)[C@@]1(C)CC[C@@H](O)C[C@H]1CC2 [Compound 2a]		1		14	-0.0816					
C[C@]12CC[C@@H](O)C[C@H]1CCc1c2nc2ccccc2c1-c1ccccc1 [Compound 2b]								-2	2.5	0.0566
Cc1c2c(nc3cc(Br)ccc13)[C@@]1(C)CC[C@@H](O)C[C@H]1CC2 [Compound 2c]								-1	9	-0.168
C[C@]12CC[C@@H](O)C[C@H]1CCc1c2nc2ccccc2c1-c1ccc(F)cc1 [Compound 2d]		-6		7.5	0.0456					
C[C@]12CC[C@@H](O)C[C@H]1CCc1c2nc2ccc(Cl)cc2c1-c1ccccc1 [Compound 2e]								-4	2.5	-0.1
C[C@]12CC[C@@H](O)C[C@H]1CCc1c2[nH]c2ncccc12 [Compound 3]		-2		8	-0.0743					
C[C@]12CC[C@@H](O)C[C@H]1CCC[C@]21Nc2ccccc2-n2cccc21 [Compound 4]		-9		-0.833	0.5			-8	-1.67	0.9
C[C@]12CC[C@@H](O)C[C@H]1CCC[C@]21NC(=O)c2ccccc2N1 [Compound 5a]		0		10	-0.16			-2	7	0.0244
C[C@]12CC[C@@H](O)C[C@H]1CCC[C@]21NC(=O)c2ccc(F)cc2N1 [Compound 5b]		-1		15	-0.121			-2	8	0.0138
